pIC50: −log10 of the molar value.
Target: human Cat S (Homo sapiens (Human), UniProt P25774)
Assay: Cathepsin enzyme inhibition assay (fluorogenic peptide substrate Z-Val-Val-Arg-AMC)
Type: biochemical
Conditions: enzyme 1 nM, substrate 20 μM, pH 6.5
Experimental: Cathepsin Enzyme Inhibition Assay
Enzyme activity is measured by observing the increase in fluorescence intensity caused by cleavage of a peptide substrate containing a fluorophore whose emission is quenched in the intact peptide.
Assay buffer: 100 mM potassium phosphate pH 6.5, EDTA-Na 5 mM, Triton X-100 0.001%, DTT 5 mM.
Enzymes (all at 1 nM): human and mouse Cathepsin S, Cat K, Cat B, Cat L.
Substrate (20 μM): Z-Val-Val-Arg-AMC, except for Cat K which uses Z-Leu-Arg-AMC (both from Bachem).
AMC=7-Amino-4-Methyl-Coumarin.
Excitation 360 nm, Emission 465 nm.
Enzyme is added to the substance dilutions in 96-well microtitre plates and the reaction is started with substrate. […] IC50 are calculated by standard methods.
Inhibition of human Cat S, mouse Cat S, human Cat K, human Cat B, human Cat L and mouse Cat L have been measured separately.

human Cat S, sequence (P25774 115-331): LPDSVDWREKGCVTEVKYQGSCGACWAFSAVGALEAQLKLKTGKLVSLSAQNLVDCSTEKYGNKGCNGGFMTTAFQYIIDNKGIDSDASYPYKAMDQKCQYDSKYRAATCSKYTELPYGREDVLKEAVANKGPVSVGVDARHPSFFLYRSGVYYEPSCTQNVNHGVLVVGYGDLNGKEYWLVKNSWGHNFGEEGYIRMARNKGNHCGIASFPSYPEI

Point of comparison: `Cc1nnnn1-c1ccc(S(=O)(=O)[C@@H]2C[C@@H](C(=O)NC3(C#N)CC3)N(C(=O)C3(C(F)(F)F)CC3)C2)c(Cl)c1` [Example 9, (2S,4R)-4-(2-chloro-4-(5-methyl-1H-tetrazol-1-yl)phenylsulfonyl)-N-(1-cyanocyclopropyl)-1-(1-(trifluoromethyl)cyclopropanecarbonyl)pyrrolidine-2-carboxamide], pIC50 9.17. Against it:
- N#CC1(NC(=O)[C@@H]2C[C@@H](S(=O)(=O)c3ccc(-c4cc[n+]([O-])c(Cl)c4)cc3C(F)(F)F)CN2C(=O)C2(C(F)(F)F)CC2)CC1 [Example 1, (2S,4R)-4-[4-(2-Chloro-1-oxy-pyridin-4-yl)-2-trifluoromethyl-benzenesulfonyl]-1-(1-trifluoromethyl-cyclopropanecarbonyl)-pyrrolidine-2-carboxylic acid (1-cyano-cyclopropyl)-amide] — within 0.2 log units, 9.01
- Cc1cc(-c2ccc(S(=O)(=O)[C@@H]3C[C@@H](C(=O)NC4(C#N)CC4)N(C(=O)C4(C(F)(F)F)CC4)C3)c(C(F)(F)F)c2)cc[n+]1[O-] [Example 2, (2S,4R)-4-[4-(2-Methyl-1-oxy-pyridin-4-yl)-2-trifluoromethyl-benzenesulfonyl]-1-(1-trifluoromethyl-cyclopropanecarbonyl)-pyrrolidine-2-carboxylic acid (1-cyano-cyclopropyl)-amide] — within 0.2 log units, 9.11
- Cn1nc(C(F)(F)F)cc1-c1ccc(S(=O)(=O)[C@@H]2C[C@@H](C(=O)NC3(C#N)CC3)N(C(=O)C3(C(F)(F)F)CC3)C2)c(C(F)(F)F)c1 [Example 3, (2S,4R)-4-[4-(2-Methyl-5-trifluoromethyl-2Hpyrazol-3-yl)-2-trifluoromethyl-benzenesulfonyl]-1-(1-trifluoromethyl-cyclopropanecarbonyl)-pyrrolidine-2-carboxylic acid (1-cyano-cyclopropyl)-amide] — within 0.2 log units, 8.99
- N#CC1(NC(=O)[C@@H]2C[C@@H](S(=O)(=O)c3ccc(-c4ccccc4OC(F)(F)F)cc3C(F)(F)F)CN2C(=O)C2(C(F)(F)F)CC2)CC1 [Example 4, (2S,4R)-4-(2′-Trifluoromethoxy-3-trifluoromethyl-biphenyl-4-sulfonyl)-1-(1-trifluoromethyl-cyclopropanecarbonyl)-pyrrolidine-2-carboxylic acid (1-cyano-cyclopropyl)-amide] — within 0.2 log units, 9.01
- CCOc1ccccc1-c1ccc(S(=O)(=O)[C@@H]2C[C@@H](C(=O)NC3(C#N)CC3)N(C(=O)C3(C(F)(F)F)CC3)C2)c(C(F)(F)F)c1 [Example 5, (2S,4R)-4-(2′-Ethoxy-3-trifluoromethyl-biphenyl-4-sulfonyl)-1-(1-trifluoromethyl-cyclopropanecarbonyl)-pyrrolidine-2-carboxylic acid (1-cyano-cyclopropyl)-amide] — within 0.2 log units, 9.08
- N#CC1(NC(=O)[C@@H]2C[C@@H](S(=O)(=O)c3ccc(-c4ccccc4OC4CC4)cc3C(F)(F)F)CN2C(=O)C2(C(F)(F)F)CC2)CC1 [Example 6, (2S,4R)-4-(2′-Cyclopropoxy-3-trifluoromethyl-biphenyl-4-sulfonyl)-1-(1-trifluoromethyl-cyclopropanecarbonyl)-pyrrolidine-2-carboxylic acid (1-cyano-cyclopropyl)-amide] — 0.20 log units lower, 8.97
- N#CC1(NC(=O)[C@@H]2C[C@@H](S(=O)(=O)c3ccc(OC4CCC4)cc3C(F)(F)F)CN2C(=O)C2(C(F)(F)F)CC2)CC1 [Example 7, (2S,4R)-4-(4-Cyclobutoxy-2-trifluoromethyl-benzenesulfonyl)-1-(1-trifluoromethyl-cyclopropanecarbonyl)-pyrrolidine-2-carboxylic acid (1-cyano-cyclopropyl)-amide] — within 0.2 log units, 9.04
- Cc1nnn(-c2ccc(S(=O)(=O)[C@@H]3C[C@@H](C(=O)NC4(C#N)CC4)N(C(=O)C4(C(F)(F)F)CC4)C3)c(Cl)c2)n1 [Example 8, (2S,4R)-4-(2-chloro-4-(5-methyl-2H-tetrazol-2-yl)phenylsulfonyl)-N-(1-cyanocyclopropyl)-1-(1-(trifluoromethyl)cyclopropanecarbonyl)pyrrolidine-2-carboxamide] — within 0.2 log units, 9.27
- N#CC1(NC(=O)[C@@H]2C[C@@H](S(=O)(=O)c3ccc(-n4cncn4)cc3Cl)CN2C(=O)C2(C(F)(F)F)CC2)CC1 [Example 10, (2S,4R)-4-(2-chloro-4-(1H-1,2,4-triazol-1-yl)phenylsulfonyl)-N-(1-cyanocyclopropyl)-1-(1-(trifluoromethyl)cyclopropanecarbonyl)pyrrolidine-2-carboxamide] — within 0.2 log units, 9.16
- N#CC1(NC(=O)[C@@H]2C[C@@H](S(=O)(=O)c3ccc(-n4cncn4)cc3-n3cncn3)CN2C(=O)C2(C(F)(F)F)CC2)CC1 [Example 11, (2S,4R)—N-(1-cyanocyclopropyl)-4-(2,4-di(1H-1,2,4-triazol-1-yl)phenylsulfonyl)-1-(1-(trifluoromethyl)cyclopropanecarbonyl)pyrrolidine-2-carboxamide] — 1.27 log units lower, 7.90
- N#CC1(NC(=O)[C@@H]2C[C@@H](S(=O)(=O)c3ccc(-n4nccn4)cc3Cl)CN2C(=O)C2(C(F)(F)F)CC2)CC1 [Example 12, (2S,4R)-4-(2-chloro-4-(2H-1,2,3-triazol-2-yl)phenylsulfonyl)-N-(1-cyanocyclopropyl)-1-(1-(trifluoromethyl)cyclopropanecarbonyl)pyrrolidine-2-carboxamide] — within 0.2 log units, 9.25
- N#CC1(NC(=O)[C@@H]2C[C@@H](S(=O)(=O)c3ccc(-n4ccnn4)cc3Cl)CN2C(=O)C2(C(F)(F)F)CC2)CC1 [Example 13, (2S,4R)-4-(2-chloro-4-(1H-1,2,3-triazol-1-yl)phenylsulfonyl)-N-(1-cyanocyclopropyl)-1-(1-(trifluoromethyl)cyclopropanecarbonyl)pyrrolidine-2-carboxamide] — within 0.2 log units, 9.25
- Cc1ncn(-c2ccc(S(=O)(=O)[C@@H]3C[C@@H](C(=O)NC4(C#N)CC4)N(C(=O)C4(C(F)(F)F)CC4)C3)c(Cl)c2)n1 [Example 14, (2S,4R)-4-(2-chloro-4-(3-methyl-1H-1,2,4-triazol-1-yl)phenylsulfonyl)-N-(1-cyanocyclopropyl)-1-(1-(trifluoromethyl)cyclopropanecarbonyl)pyrrolidine-2-carboxamide] — within 0.2 log units, 9.28
- Cc1nc(C)n(-c2ccc(S(=O)(=O)[C@@H]3C[C@@H](C(=O)NC4(C#N)CC4)N(C(=O)C4(C(F)(F)F)CC4)C3)c(Cl)c2)n1 [Example 15, (2S,4R)-4-(2-chloro-4-(3,5-dimethyl-1H-1,2,4-triazol-1-yl)phenylsulfonyl)-N-(1-cyanocyclopropyl)-1-(1-(trifluoromethyl)cyclopropanecarbonyl)pyrrolidine-2-carboxamide] — within 0.2 log units, 9.21
- N#CC1(NC(=O)[C@@H]2C[C@@H](S(=O)(=O)c3ccc(-n4cnc(Cl)n4)cc3Cl)CN2C(=O)C2(C(F)(F)F)CC2)CC1 [Example 16, (2S,4R)-4-(2-chloro-4-(3-chloro-1H-1,2,4-triazol-1-yl)phenylsulfonyl)-N-(1-cyanocyclopropyl)-1-(1-(trifluoromethyl)cyclopropanecarbonyl)pyrrolidine-2-carboxamide] — within 0.2 log units, 9.25
- N#CC1(NC(=O)[C@@H]2C[C@@H](S(=O)(=O)c3ccc(-n4ccc(C(F)(F)F)n4)cc3Cl)CN2C(=O)C2(C(F)(F)F)CC2)CC1 [Example 17, (2S,4R)-4-(2-chloro-4-(3-(trifluoromethyl)-1H-pyrazol-1-yl)phenylsulfonyl)-N-(1-cyanocyclopropyl)-1-(1-(trifluoromethyl)cyclopropanecarbonyl)pyrrolidine-2-carboxamide] — within 0.2 log units, 9.15
